How the values were obtained:
[1] = anti-inflammatory and analgetic activities, general statement; type: in vivo; conditions: test not specified
[2] = acute toxicity (LD50 table, level of toxicity); conditions: in vivo
Description: This low level of toxicity appears from the following table: […]

Rhine virus = assay: activity against Rhine virus
[3] = known compound, background, cited from earlier work
[4] = po, route of administration: or(al)
[5] = route of administration: par(enteral)

Compound | LD50 at 24 h [2, 4] [mg/kg] | LD50 at 24 h [2, 5] [mg/kg] | other results
CC(=NOCC(N)=O)c1ccc(Cl)cc1 [C1 H H CH3 CH2 NH2, [(α-methyl-4-chlorobenzylidene amino)oxy]acetamide] | > 1000 |  | activities [1]: particularly strong activities; LD50 at 48 h [2, 4]: > 1000 mg/kg; activity against Rhine virus (Rhine virus): interesting activity
CC(=NOCC(=O)O)c1cccc(Cl)c1 [H C1 H CH3 CH2 OH] |  | > 320 | 
CC(=NOCC(=O)NN)c1ccc(Cl)cc1 [C1 H H CH3 CH2 NHNH2, [(α-methyl-4-chlorobenzylidene amino)oxy] acet hydrazide] | ~1000 |  | activity against Rhine virus (Rhine virus): interesting activity
CC(=NOCC(=O)N(C)C)c1ccc(Cl)cc1 [C1 H H CH3 CH2 (CH3)2 N, [(α-methyl-4-chlorobenzylidene amino)oxy]-N,N-dimethyl acetamide] | > 1000 |  | 
O=C(O)CON=Cc1ccc(Cl)cc1 [C1 H H H CH2 OH, [(4-chlorobenzylidene amino)oxy] acetic acid] |  | > 320 | 
CC(=NOCC(=O)O)c1ccc(C)cc1 [CH3 H H CH3 CH2 OH] |  | > 320 | 
CC(=NOCC(=O)O)c1ccc(Cl)cc1 [C1 H H CH3 CH2 OH, [(α-methyl-4-chlorobenzylidene amino)oxy] acetic acid] | > 1000 |  | activities [1]: particularly strong activities; LD50 at 48 h [2, 4]: > 1000 mg/kg
CCCCNC(=O)CON=C(C)c1ccc(Cl)cc1 [N-n.butyl-[(α-methyl-4-chlorobenzylideneamino)oxy] acetamide] |  |  | activity against Rhine virus (Rhine virus): interesting activity
CC(=NOCC(=O)O)c1ccc(S(C)(=O)=O)cc1 [CH3 SO2 H H CH3 CH2 OH] |  | > 320 | 
CC(=NOCC(=O)O)c1ccc(Cl)cc1Cl [C1 H C1 CH3 CH2 OH, [(α-methyl-2,4-dichlorobenzylidene amino)oxy] acetic acid] |  | > 320 | activity against Rhine virus (Rhine virus): interesting activity
COc1ccc2c(c1)c(CC(=O)O)cn2-c1ccc(Cl)cc1 [(N-p.chlorophenyl-5-methoxy indolyl-3) acetic acid] |  |  | potency [3]: highly potent; toxicity level [3]: high toxicity level; therapeutic level ([3]; due to high toxicity): quite low
CC(=NOCCC(=O)O)c1ccc(Cl)cc1 [C1 H H CH3 (CH2)2 OH, 3-[(α-methyl-4-chlorobenzylideneamino)oxy] propionic acid] |  | > 100 | 
CCCCCCCCOC(=O)CON=C(C)c1ccc(Cl)cc1 [C1 H H CH3 CH2 OnC8 H17] | > 1000 |  | 
CC(=NOCC(=O)O)c1ccc(Cl)c(Cl)c1 [C1 C1 H CH3 CH2 OH, [(α-methyl-3,4-dichlorobenzylene amino)oxy] acetic acid] |  | > 320 | 
CNC(=O)CON=C(C)c1ccc(Cl)cc1 [C1 H H CH3 CH2 NHCH3, [(α-methyl-4-chlorobenzylidene amino)oxy]-N-methyl acetamide] | > 1000 |  | 
CC(=NOCC(N)=O)c1ccc(Cl)c(Cl)c1 [C1 C1 H CH3 CH2 NH2, [(α-methyl-3,4-dichlorobenzylidene amino)oxy] acetamide] | ~1000 |  | activity against Rhine virus (Rhine virus): interesting activity
COC(=O)CON=C(C)c1ccc(Cl)cc1 [C1 H H CH3 CH2 OCH3, [(α-methyl-4-chlorobenzylidene amino)oxy] acetic acid methyl ester] | > 1000 |  | activities [1]: particularly strong activities; LD50 at 48 h [2, 4]: > 1000 mg/kg
CC(=NOCC(=O)OC(C)C)c1ccc(Cl)cc1 [C1 H H CH3 CH2 OCH(CH3)2] | > 1000 |  | 
CC(=NOCC(=O)O)c1ccc(Br)cc1 [Br H H CH3 CH2 OH] |  | > 100 | 
CC(=NOCCC(N)=O)c1ccc(Cl)cc1 [C1 H H CH3 (CH2)2 NH2, 3-[(α-methyl-4-chlorobenzylideneamino)oxy] propionamide] | > 1000 |  | 
CC(=NOCCCC(=O)O)c1ccc(Cl)cc1 [C1 H H CH3 (CH2)3 OH, 4-[(α-methyl-4-chlorobenzylideneamino)oxy] butyric acid] |  | > 320 | activity against Rhine virus (Rhine virus): interesting activity
CC(=NOCC(=O)OCc1ccccc1)c1ccc(Cl)cc1 [C1 H H CH3 CH2 OCH2 C6 H5] | > 1000 |  | 

Reference: patent US4196216A, “Novel benzylidene amini-oxyalkyl carboxylic acids and carboxylic acid derivatives” (U.S. Philips Corporation, priority 1968, dated 1980)
